In patent publication US10105351B2, “Neurofibromatoses therapeutic agents and screening for same” (University of Central Florida Research Foundation, Inc., priority 2012, dated 2018):
Structures can show the parent of a compound that is named as a salt.

How the values were obtained:
[1] = tested on: normal nf2^flox2/flox2 Schwann cells; assay: Selectivity assay: cell viability of normal Schwann cells; settings: 10 uM; one assay with mouse nf2^flox2/flox2 Schwann cells at P2
Procedure: (§1) The compounds were tested at 10 uM in 8 replicates in a 384-well format using the live cell protease assay (CellTiter-Fluor) and the orthogonal ATP-based assay (CellTiter-GLO) (both from Promega). We tested the compounds on two Merlin-null Schwann cell lines, L1, (used in the LOPAC screen) at passages ranging from 13-23 and an independently-derived line, L2, tested at passage 20 and 21.

[2] = tested on: merlin-null Schwann cells; assay: Orthogonal ATP-based luminescence cell viability assay (CellTiter-GLO); settings: 10 uM; average of two assays with one cell line at P18-23
[3] = tested on: merlin-null Schwann cells; assay: Primary assay: live cell protease assay (CellTiter-Fluor), cell viability; settings: 10 uM; 8 replicates, 384 well plate; mean and SD of four assays, two independently derived merlin-null Schwann cell lines at P13-23
Procedure: Cell viability was measured with the CellTiter-Fluor Live Protease Assay (Promega). […] One way ANOVA Kurskal-Wallis test was used with a Dunn's Multiple Comparison post-test.
as §1

SMILES | Selectivity Assay, cell viability [1] | Orthogonal Assay Average of two, cell viability [2] | Primary Assay (m +/− sd), cell viability [3]
CCn1cnc2c(Nc3cccc(Cl)c3)nc(N[C@@H]3CCCC[C@@H]3N)nc21 (relative stereo) [CGP-74514A hydrochloride, N2-(cis-2-Aminocyclohexyl)-N6-(3-chlorophenyl)-9-ethyl-9H-purine-2,6-diamine hydrochloride] | 33 % of DMSO Control | 16.1 % of DMSO Control | 35 +/− 7 % of DMSO Control
CC[n+]1c(C=CC=C2N(C)c3ccccc3C2(C)C)sc2ccccc21.[I-] [AC-93253 iodide, 2-[3-(1,3-Dihydro-1,3,3-trimethyl-2H-indol-2-ylidene)-1-propenyl]-3-ethyl-benzothiazolium iodide] | 28 % of DMSO Control | 24.3 % of DMSO Control | 41 +/− 6 % of DMSO Control
O=C1NC(=O)/C(=C/c2ccc3nccnc3c2)S1 [AS605240, 5-(6-Quinoxalinylmethylene)-2,4-thiazolidinedione] | 78 % of DMSO Control | 40.1 % of DMSO Control | 35 +/− 2 % of DMSO Control
O=C1Nc2cc(Br)ccc2C1C1Nc2ccccc2C1NO (centres unmarked) [BIO, (2′Z,3′E)-6-Bromoindirubin-3′-oxime] | 31 % of DMSO Control | 0.8 % of DMSO Control | 20 +/− 8 % of DMSO Control
C[C@@]12C(=O)OC(=O)[C@]1(C)[C@H]1CC[C@@H]2O1 [Cantharidin, cantharidin] | 78 % of DMSO Control | 35.2 % of DMSO Control | 34 +/− 14 % of DMSO Control
CC(C)(C)c1ccc(C(=O)CCCN2CCC(OC(c3ccccc3)c3ccccc3)CC2)cc1 [Ebastine, ebastine] | – | 0.1 % of DMSO Control | 17 +/− 3 % of DMSO Control
OCCN1CCN(CCCN2c3ccccc3Sc3ccc(C(F)(F)F)cc32)CC1 [Fluphenazine dihydrochloride] | 43 % of DMSO Control | 45.6 % of DMSO Control | 71 +/− 6 % of DMSO Control
O=C1Nc2ccc(I)cc2C1=Cc1cc(Br)c(O)c(Br)c1 [GW5074, 3-(3,5-Dibromo-4-hydroxybenzyliden)-5-iodo-1,3-dihydroindol-2-one] | 31 % of DMSO Control | 36.4 % of DMSO Control | 24 +/− 7 % of DMSO Control
CC(C)(Sc1ccc(CCN(CCCCC2CCCCC2)C(=O)NC2CCCCC2)cc1)C(=O)O [GW7647, (2-(4-(2-(1-Cyclohexanebutyl)-3-cyclohexylureido)ethyl)-phenyl-thio)-2-methyl-propionic acid] | 32 % of DMSO Control | 6.3 % of DMSO Control | 20 +/− 5 % of DMSO Control
O=C(CCCN1CCC(O)(c2ccc(Cl)cc2)CC1)c1ccc(F)cc1 [Haloperidol] | 78 % of DMSO Control | 88.8 % of DMSO Control | 96 +/− 4 % of DMSO Control
CC(C)c1ccc2c(c1)c(SC(C)(C)C)c(CC(C)(C)C(=O)O)n2Cc1ccc(Cl)cc1 [L663,536, 3-[3-tert-Butylthio-1-(4-chlorobenzyl)-5-isopropyl-1H-indol-2-yl]-2,2-dimethylpropionic acid, sodium salt hydrate] | 31 % of DMSO Control | 0.1 % of DMSO Control | 16 +/− 3 % of DMSO Control
COc1ccc(Br)cc1S(=O)(=O)NC(=O)/C=C/c1ccccc1Cc1ccc2ccccc2c1 [L-798106, (2E)-N-[(5-bromo-2-methoxyphenyl)sulfonyl]-3-[2-(2-naphthalenylmethyl)phenyl]-2-propenamide] | 33 % of DMSO Control | 37.6 % of DMSO Control | 35 +/− 13 % of DMSO Control
CC[C@H](C)C(=O)O[C@H]1CCC=C2C=C[C@H](C)[C@H](CC[C@@H]3C[C@@H](O)CC(=O)O3)[C@H]21 [Mevastatin, mevastatin] | 74 % of DMSO Control | 85.1 % of DMSO Control | 81 +/− 11 % of DMSO Control
COCC(=O)O[C@]1(CCN(C)CCCc2nc3ccccc3[nH]2)CCc2cc(F)ccc2[C@@H]1C(C)C [Mibefradil dihydrochloride hydrate, mibefradil] | 32 % of DMSO Control | 53.3 % of DMSO Control | 67 +/− 9 % of DMSO Control
O=C1c2c(O)ccc(O)c2C(=O)c2c(NCCNCCO)ccc(NCCNCCO)c21 [Mitoxantrone dihydrochloride, 1,4-Dihydroxy-5,8-bis[[2-[(2-hydroxyethyl)amino]ethyl]amino]-9,10-anthracenedione] | 34 % of DMSO Control | 36.8 % of DMSO Control | 39 +/− 6 % of DMSO Control
CCN(CC)CCCCNc1ncc2cc(-c3c(Cl)cccc3Cl)c(NC(=O)NC(C)(C)C)nc2n1 [PD-161570, 1-tert-Butyl-3-[6-(2,6-dichlorophenyl)-2-[[4-(diethylamino)butyl]amino]pyrido[2,3-d]pyrimidin-7-yl]urea] | 47 % of DMSO Control | 62.4 % of DMSO Control | 60 +/− 12 % of DMSO Control
O=C(O)c1ccc2ccccc2c1O.OCc1cc(C(O)CNCCCCCCOCCCCc2ccccc2)ccc1O (centres unmarked) [Salmeterol xinafoate, salmeterol xinafoate] | 57 % of DMSO Control | 73.7 % of DMSO Control | 57 +/− 9 % of DMSO Control
O=C(CCCN1CCC2(CC1)C(=O)NCN2c1ccccc1)c1ccc(F)cc1 [Spiroperidol] | 85 % of DMSO Control | 84.3 % of DMSO Control | 90 +/− 6 % of DMSO Control
CSc1ccc2c(c1)N(CCC1CCCCN1C)c1ccccc1S2 (centres unmarked) [Thioridazine hydrochloride, thioridazine] | 33 % of DMSO Control | 67.9 % of DMSO Control | 71 +/− 13 % of DMSO Control
CN1CCN(CCCN2c3ccccc3Sc3ccc(C(F)(F)F)cc32)CC1 [Trifluoperazine dihydrochloride, trifluoperazine] | 47 % of DMSO Control | 47 % of DMSO Control | 78 +/− 6 % of DMSO Control
